Laboratory results reported in ChEMBL document CHEMBL4229534, “Amelioration of mechanism-based inactivation of CYP3A4 by a H-PGDS inhibitor” (Bioorg Med Chem Lett, 2018).

Tests used:
[1] = biological target: Hematopoietic prostaglandin D synthase (Homo sapiens, UniProt O60760); test: Inhibition of HPGDS (unknown origin)
CYP3A4 [2] = biological target: T1, CYP3A4 (Homo sapiens, UniProt P08684); test: Inhibition of CYP3A4 in human liver microsomes assessed as residual activity using midazolam as substrate relative to control; type: ADME; set-up: concentration or dose not given beside the values; settings: probe midazolam
CYP3A4 [3] = biological target: T1, CYP3A4; test: Inhibition of CYP3A4 in human liver microsomes assessed as residual activity using testosterone as substrate relative to control; type: ADME; set-up: concentration or dose not given beside the values; settings: probe testosterone
Cytochrome P450 3A4 [4] = biological target: T2, Cytochrome P450 3A4 (Homo sapiens, UniProt P08684); test: (§1) Inhibition of recombinant human CYP3A4 assessed as residual activity using midazolam as substrate relative to control; type: ADME; settings: recombinant enzyme
Cytochrome P450 3A4 [5] = biological target: T2, Cytochrome P450 3A4; test: (§2) Inhibition of recombinant human CYP3A4 assessed as residual activity using testosterone as substrate relative to control; type: ADME; settings: recombinant enzyme
Cytochrome P450 3A4 [6] = biological target: T2, Cytochrome P450 3A4; test: Mechanism based inactivation of CYP3A4 in human liver microsomes assessed as apparent partition ratio by measuring ratio of number of inactivator molecules that get metabolized to number of enzyme molecules inactivated using midazolam as substrate; type: ADME
Cytochrome P450 3A4 [7] = biological target: T2, Cytochrome P450 3A4; test: Mechanism based inactivation of recombinant human CYP3A4 assessed as apparent partition ratio by measuring ratio of number of inactivator molecules that get metabolized to number of enzyme molecules inactivated using midazolam as substrate; type: ADME
Cytochrome P450 3A4 [8] = biological target: T2, Cytochrome P450 3A4; test: Mechanism based inactivation of recombinant human CYP3A4 assessed as apparent partition ratio by measuring ratio of number of inactivator molecules that get metabolized to number of enzyme molecules inactivated using testosterone as substrate; type: ADME
CYP3A4 [9] = biological target: T1, CYP3A4; test: as §1; type: ADME; settings: recombinant human CYP3A4, probe midazolam
CYP3A4 [10] = biological target: T1, CYP3A4; test: as §2; type: ADME; settings: recombinant human CYP3A4, probe testosterone
Cytochrome P450 3A4 [11] = biological target: T2, Cytochrome P450 3A4; test: Mechanism based inactivation of CYP3A4 in human liver microsomes assessed as apparent partition ratio by measuring ratio of number of inactivator molecules that get metabolized to number of enzyme molecules inactivated using testosterone as substrate; type: ADME

Hematopoietic prostaglandin D synthase, sequence (O60760 whole entry): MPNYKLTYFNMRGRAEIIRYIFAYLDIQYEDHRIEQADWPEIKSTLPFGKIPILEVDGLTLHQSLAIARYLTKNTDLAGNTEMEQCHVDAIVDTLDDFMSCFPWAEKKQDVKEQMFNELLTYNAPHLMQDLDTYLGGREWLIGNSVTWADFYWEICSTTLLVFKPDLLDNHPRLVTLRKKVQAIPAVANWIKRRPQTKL
T1 sequence (P08684 whole entry): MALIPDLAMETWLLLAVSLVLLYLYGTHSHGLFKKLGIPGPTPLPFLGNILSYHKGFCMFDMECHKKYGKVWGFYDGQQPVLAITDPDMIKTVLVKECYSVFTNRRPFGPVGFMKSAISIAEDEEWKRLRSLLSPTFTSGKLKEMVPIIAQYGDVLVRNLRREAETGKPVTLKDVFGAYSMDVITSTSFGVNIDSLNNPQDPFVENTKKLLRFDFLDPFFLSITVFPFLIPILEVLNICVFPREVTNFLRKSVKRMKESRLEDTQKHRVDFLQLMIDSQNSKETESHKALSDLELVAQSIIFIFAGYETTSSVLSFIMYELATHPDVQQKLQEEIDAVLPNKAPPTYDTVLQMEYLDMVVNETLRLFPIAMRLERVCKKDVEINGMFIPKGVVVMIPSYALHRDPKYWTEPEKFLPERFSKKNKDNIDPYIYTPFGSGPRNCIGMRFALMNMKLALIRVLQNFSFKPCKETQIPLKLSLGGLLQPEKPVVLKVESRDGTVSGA
T2 sequence (P08684 whole entry): as above

| IC50 [1] [nM] | activity (CYP3A4 [2]) [%] | activity (CYP3A4 [3]) [%] | activity (Cytochrome P450 3A4 [4]) | activity (Cytochrome P450 3A4 [5]) | Ratio (Cytochrome P450 3A4 [6]) | Ratio (Cytochrome P450 3A4 [7]) | Ratio (Cytochrome P450 3A4 [8]) | activity (CYP3A4 [9]) [%] | activity (CYP3A4 [10]) [%] | Ratio (Cytochrome P450 3A4 [11]) | SMILES |
| --- | --- | --- | --- | --- | --- | --- | --- | --- | --- | --- | --- |
| 3 | 57 | > 70 |  |  | 338 | 326 | 460 | 19 | 22 |  | COc1ccc2c(n1)c(C)cn2NC(=O)c1cnc(-c2ccccn2)nc1C |
| 6 | 79 | 91 |  |  |  |  |  |  |  |  | Cc1nc(-c2ccccn2)ncc1C(=O)Nn1cc(C)c2nc(F)ccc21 |
|  | 30 | 20 |  |  | 170 to 173 |  |  |  |  | 160 to 167 | Cc1nc(-c2ccccn2)ncc1C(=O)Nn1cc(C)c2cc(F)ccc21 |

The next lines start with the compound.

| SMILES | IC50 [1] [nM] | activity (CYP3A4 [2]) [%] | activity (CYP3A4 [3]) [%] | activity (Cytochrome P450 3A4 [4]) | activity (Cytochrome P450 3A4 [5]) | Ratio (Cytochrome P450 3A4 [6]) | Ratio (Cytochrome P450 3A4 [7]) | Ratio (Cytochrome P450 3A4 [8]) | activity (CYP3A4 [9]) [%] | activity (CYP3A4 [10]) [%] | Ratio (Cytochrome P450 3A4 [11]) |
| --- | --- | --- | --- | --- | --- | --- | --- | --- | --- | --- | --- |
| Cc1nc(-c2ncccn2)ncc1C(=O)Nn1ccc2c(C(F)(F)F)cccc21 | 8 | 95 | 90 | Not Active | Not Active |  |  |  |  |  |  |
| Cc1nc(-c2ccccn2)ncc1C(=O)Nn1ccc2c(C(F)(F)F)cccc21 | 10 | 100 | 91 |  |  |  | 1119 | 842 | 57 | 59 |  |
| CC(C)(CO)NS(=O)(=O)c1cccc(CNC(=O)c2cnc(-c3cccc(F)c3)nc2)c1 | 23 |  |  |  |  |  |  |  |  |  |  |
| CNS(=O)(=O)c1cccc(CNC(=O)c2cnc(-c3cccc(F)c3)nc2C)c1 | 9.5 |  |  |  |  |  |  |  |  |  |  |
